This is an account of results in PMC7918878 (Molecules, 2021).

The target in assay [1] is AChE isolated from electric eel (EeAChE) (Electrophorus electricus, UniProt O42275). Briefly: biochemical. To be noted: for IC50: mean ± SD, n = three independent experiments, ATCh 40 µM; for Selectivity BuChE/AChE: SI = ratio of IC50 for BuChE/IC50 for AChE, >1 means stronger inhibition of AChE.
Assay [2] has as its target BuChE obtained from equine serum (EqBuChE) (Equus caballus, UniProt P81908). Briefly: biochemical. It counts as biochemical. The following applies: for IC50: mean ± SD, n = three independent experiments, BTCh 40 µM; for fold less active against BuChE than 2d: compared with 2-chlorobenzylidene analogue 2d.
The next assay has as its system HepG2 cells. The following applies: cited from earlier work.
A further assay has as its target eeAChE (Electrophorus electricus, UniProt O42275). Briefly: Type of inhibition, Lineweaver–Burk plot and nonlinear regression. It counts as biochemical. The procedure:
The type of inhibition could be distinguished using a Lineweaver–Burk plot and corresponding comparison of two kinetic parameters: Michaelis constant (KM) and maximum velocity (Vm) of uninhibited and inhibited reaction. […].
. The dependence absorbance vs. time was observed and the reaction rate was calculated. All measurements were carried out in duplicate and the average values of reaction rate were used for the construction of the Lineweaver–Burk plot. Furthermore, the dependencies vs. concentration of ATCh in absence and presence of inhibitor 2l were analyzed by nonlinear regression using GraphPad Prism 9.0.1 for Windows (GraphPad Software, San Diego, CA, USA, www.graphpad.com). From obtained equations of regression curves in the Lineweaver–Burk plot, the values of Michaelis constant (KM) and maximum velocity (Vm) were calculated. […]. Based on all obtained results, the type of inhibition was identified.

Setting [3] is: nonlinear regression, mixed model inhibition.

“And” between values parts separate entries of the source, which are not always exact repeats. Equal entries are not always repeated. Where two headings read alike, the source gives them in different places.

Sequence of BuChE obtained from equine serum (EqBuChE) (P81908 whole entry): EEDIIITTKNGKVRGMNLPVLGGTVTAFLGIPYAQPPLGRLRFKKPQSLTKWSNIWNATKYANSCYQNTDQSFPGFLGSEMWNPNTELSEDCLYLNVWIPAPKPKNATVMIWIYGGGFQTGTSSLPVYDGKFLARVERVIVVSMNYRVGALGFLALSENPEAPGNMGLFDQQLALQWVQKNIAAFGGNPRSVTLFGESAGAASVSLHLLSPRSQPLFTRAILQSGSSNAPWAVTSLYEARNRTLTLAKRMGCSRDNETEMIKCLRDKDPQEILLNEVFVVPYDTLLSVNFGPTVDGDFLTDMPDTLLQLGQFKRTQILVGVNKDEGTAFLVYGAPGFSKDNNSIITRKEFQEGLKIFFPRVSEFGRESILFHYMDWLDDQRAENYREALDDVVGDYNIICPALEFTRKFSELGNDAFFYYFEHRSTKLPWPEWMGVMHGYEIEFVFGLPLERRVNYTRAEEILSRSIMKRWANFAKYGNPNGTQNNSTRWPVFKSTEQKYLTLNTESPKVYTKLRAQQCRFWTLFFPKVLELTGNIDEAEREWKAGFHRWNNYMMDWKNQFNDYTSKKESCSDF
Sequence of eeAChE (O42275 24-633): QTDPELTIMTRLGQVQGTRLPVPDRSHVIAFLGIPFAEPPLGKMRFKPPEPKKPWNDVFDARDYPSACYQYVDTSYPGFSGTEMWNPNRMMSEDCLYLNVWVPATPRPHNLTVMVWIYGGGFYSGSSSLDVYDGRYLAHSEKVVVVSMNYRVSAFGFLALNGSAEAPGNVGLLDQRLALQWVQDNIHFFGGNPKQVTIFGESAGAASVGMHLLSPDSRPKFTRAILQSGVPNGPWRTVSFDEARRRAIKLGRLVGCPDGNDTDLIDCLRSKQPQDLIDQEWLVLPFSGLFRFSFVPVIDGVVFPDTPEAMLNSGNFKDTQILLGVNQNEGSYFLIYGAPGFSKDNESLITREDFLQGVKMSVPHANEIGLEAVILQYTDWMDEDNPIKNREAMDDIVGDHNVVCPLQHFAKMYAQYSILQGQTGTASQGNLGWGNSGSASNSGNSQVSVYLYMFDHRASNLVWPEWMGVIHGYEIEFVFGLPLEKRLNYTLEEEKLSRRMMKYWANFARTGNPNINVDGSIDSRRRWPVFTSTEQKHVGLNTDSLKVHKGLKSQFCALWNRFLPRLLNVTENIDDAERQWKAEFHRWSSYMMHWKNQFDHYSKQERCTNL
Sequence of AChE isolated from electric eel (EeAChE) (O42275 24-633): as above

For the compound `O=C(N/N=C/c1ccccc1)c1ccc(C(F)(F)F)cc1` [2a], the results for the IC50 (in assay [1]; in assay [2] (read-out: IC50 BuChE); in the assay with HepG2 cells) were 75.9 ± 1.6 µM, 651 ± 31.5 µM and over 100 µM, respectively.
Regarding `O=C(N/N=C/c1ccc(Cl)cc1)c1ccc(C(F)(F)F)cc1` [2b], in assay [1], the “Selectivity BuChE/AChE” value was found to be 2.9. For the same compound, the IC50 in assay [1] is 88.5 ± 1.4 µM; in assay [2] (read-out: IC50 BuChE), 254 ± 3.3 µM; in the assay with HepG2 cells, over 100 µM.
`O=C(N/N=C/c1cccc(Cl)c1)c1ccc(C(F)(F)F)cc1` [2c]: in assay [1], the “Selectivity BuChE/AChE” value turned out to be 3.4. For the same compound, the IC50 is 77.1 ± 0.03 µM in assay [1], 261 ± 40.7 µM in assay [2] (read-out: IC50 BuChE) and over 100 µM in the assay with HepG2 cells.
`O=C(N/N=C/c1ccccc1Cl)c1ccc(C(F)(F)F)cc1` [2d]: the “Selectivity BuChE/AChE” value in assay [1] is 0.5. The 50% inhibitory concentration (IC50) was 128 ± 10 µM in assay [1], 63.6 ± 0.9 µM in assay [2] (IC50 BuChE) and over 100 µM in the assay on HepG2 cells.
For the compound `O=C(N/N=C/c1ccc(O)cc1)c1ccc(C(F)(F)F)cc1` [2e], in assay [1], the “Selectivity BuChE/AChE” value amounted to 2.3. Besides, the results for the 50% inhibitory concentration (IC50) (in assay [1]; in assay [2] (read-out: IC50 BuChE); in the assay on HepG2 cells) were 102 ± 3.8 µM, 229 ± 14.5 µM and over 100 µM, respectively.
As for `O=C(N/N=C/c1cccc(O)c1)c1ccc(C(F)(F)F)cc1` [2f], the “Selectivity BuChE/AChE” value in assay [1] is given as 3.5. In addition, the concentration for half-maximal inhibition (IC50) in assay [1] is 70.4 ± 2.8 µM; in assay [2] (read-out: IC50 BuChE), 250 ± 7.5 µM; in the assay with HepG2 cells it was over 100 µM.
Turning to `O=C(N/N=C/c1ccccc1O)c1ccc(C(F)(F)F)cc1` [2g], the “Selectivity BuChE/AChE” value in assay [1] was determined as 18.6. The IC50 is 47.4 ± 1.8 µM in assay [1], 881.1 ± 8 µM in assay [2] (read-out: IC50 BuChE) and over 100 µM in the assay with HepG2 cells.
Turning to `O=C(N/N=C/c1cc(Cl)ccc1O)c1ccc(C(F)(F)F)cc1` [2h], the “Selectivity BuChE/AChE” value in assay [1] is 2.1. For the same compound, the IC50 is 138 ± 3 µM in assay [1], 287 ± 12.6 µM in assay [2] (read-out: IC50 BuChE) and over 100 µM in the assay on HepG2 cells.
For the compound `Cc1ccc(/C=N/NC(=O)c2ccc(C(F)(F)F)cc2)cc1` [2i], the “Selectivity BuChE/AChE” value in assay [1] was 2.8. For the same compound, the IC50 in assay [1] is 91.4 ± 6.2 µM; in assay [2] (read-out: IC50 BuChE), 253 ± 9.6 µM; with HepG2 cells, over 100 µM.
As for `COc1ccc(/C=N/NC(=O)c2ccc(C(F)(F)F)cc2)cc1` [2j], in assay [1], the “Selectivity BuChE/AChE” value was determined as 2.6. The IC50 in assay [1] is 109 ± 2.2 µM; in assay [2] (read-out: IC50 BuChE), 279 ± 2.9 µM; in the assay on HepG2 cells it was over 100 µM.
For `O=C(N/N=C/c1ccc(Br)cc1)c1ccc(C(F)(F)F)cc1` [2k], the “Selectivity BuChE/AChE” value in assay [1] is on record as 5.5. Moreover, the values for the IC50 (in assay [1]; in assay [2] (read-out: IC50 BuChE); in the assay on HepG2 cells) were 62.1 ± 0.02 µM, 342 ± 11.3 µM and over 100 µM, respectively. Also, the “fold less active against BuChE than 2d” value in assay [2] is reported as “approximately 3 fold”.
Turning to `O=C(NN=Cc1ccc(C(F)(F)F)cc1)c1ccc(C(F)(F)F)cc1` [2l, 4-(Trifluoromethyl)-N’-[4-(trifluoromethyl)benzylidene]benzohydrazide], in assay [1], the “Selectivity BuChE/AChE” value was 3.7 and the IC50 was determined as 46.8 ± 2.1 µM. Moreover, the “fold less active against BuChE than 2d” value in assay [2] was “approximately 3 fold”. In assay [2] (read-out: IC50 BuChE), the IC50 was 175 ± 8.3 µM. Further, in the assay with HepG2 cells, the IC50 was over 100 µM. For the same compound, at eeAChE (Lineweaver–Burk plot, KM and Vm, ATCh 20–80 µM, inhibitor 10–40 µM), the Type of inhibition result was “mixed type of inhibition”. On eeAChE (setting [3]), this compound came in with a Ki of 54.6 µM and an alpha of 1.28.
As for `O=C(N/N=C/c1ccc([N+](=O)[O-])cc1)c1ccc(C(F)(F)F)cc1` [2m], the “Selectivity BuChE/AChE” value in assay [1] is 3.2. The IC50 in assay [1] is 60 ± 0.4 µM; in assay [2] (read-out: IC50 BuChE), 190.6 ± 1.1 µM; in the assay with HepG2 cells, over 100 µM.
Consider `O=C(NN=Cc1cccc(Br)c1)c1ccc(C(F)(F)F)cc1` [2n, N’-(3-Bromobenzylidene)-4-(trifluoromethyl)benzohydrazide], for which, in assay [1], the “Selectivity BuChE/AChE” value amounted to 1.7 and the 50% inhibitory concentration (IC50) is 96.9 ± 1.3 µM. Moreover, the half-inhibitory concentration (IC50) in assay [2] (read-out: IC50 BuChE) was determined as 166.3 ± 0.8 µM.
As for `O=C(NN=Cc1ccccc1Br)c1ccc(C(F)(F)F)cc1` [2o, N’-(2-Bromobenzylidene)-4-(trifluoromethyl)benzohydrazide], in assay [1], the “Selectivity BuChE/AChE” value was found to be 0.9 and it took 62.6 ± 3.2 µM to reach half-maximal inhibition (IC50). Also, the “improved activity against BuChE” value in assay [2] (fold, 2k vs. 2o) stood at 6.3 ×. Further, the half-maximal inhibitory concentration (IC50) in assay [2] (read-out: IC50 BuChE) came out at 54.2 ± 0.1 µM.
For `O=C(NN=Cc1cccc(C(F)(F)F)c1)c1ccc(C(F)(F)F)cc1` [2p, 4-(Trifluoromethyl)-N’-[3-(trifluoromethyl)benzylidene]benzohydrazide], in assay [1], the “Selectivity BuChE/AChE” value is listed as 1.3 and the concentration for half-maximal inhibition (IC50) stood at 49.9 ± 1.4 µM. Besides, in assay [2] (read-out: IC50 BuChE), the IC50 amounted to 63.6 ± 2.8 µM.
In the same order, the values of `O=C(NN=Cc1ccccc1C(F)(F)F)c1ccc(C(F)(F)F)cc1` [2q, 4-(Trifluoromethyl)-N’-[2-(trifluoromethyl)benzylidene]benzohydrazide] are 0.4, 50 ± 1.6 µM and 19.1 ± 0.5 µM.
On the same counts, the results for `O=C(NN=Cc1cccc([N+](=O)[O-])c1)c1ccc(C(F)(F)F)cc1` [2r, N’-(3-Nitrobenzylidene)-4-(trifluoromethyl)benzohydrazide] are 1.6, 81.3 ± 2.6 µM and 133 ± 10.2 µM.
On the same counts, the results for `O=C(NN=Cc1ccccc1[N+](=O)[O-])c1ccc(C(F)(F)F)cc1` [2s, N’-(2-Nitrobenzylidene)-4-(trifluoromethyl)benzohydrazide] are 1.6, 59.7 ± 5.8 µM and 93.1 ± 4.9 µM.
Turning to `O=C(NN=Cc1ccc(C(F)(F)F)cc1)c1ccccc1` [2t, N’-[4-(Trifluoromethyl)benzylidene]benzohydrazide], the “Selectivity BuChE/AChE” value in assay [1] turned out to be 3.0. Besides, the figures for the IC50 in assay [1] and in assay [2] (read-out: IC50 BuChE) were 62.9 ± 0.8 µM and 189.8 ± 1.7 µM, respectively.
`Cc1ccc(C(=O)NN=Cc2ccc(C(F)(F)F)cc2)cc1` [2u, 4-Methyl-N’-[4-(trifluoromethyl)benzylidene]benzohydrazide]: in assay [1], the “Selectivity BuChE/AChE” value is 3.3 and 75.3 ± 1.5 µM corresponded to half-maximal inhibition (IC50). The IC50 in assay [2] (read-out: IC50 BuChE) amounted to 245 ± 7 µM.
As for `CC(C)=NNC(=O)c1ccc(C(F)(F)F)cc1` [3a], in assay [1], the “Selectivity BuChE/AChE” value is given as 6.1. Moreover, the IC50 in assay [1] was 69.7 ± 5.2 µM; in assay [2] (read-out: IC50 BuChE), 424 µM; in the assay with HepG2 cells, over 100 µM.
On to `O=C(NN=C1CCCC1)c1ccc(C(F)(F)F)cc1` [3b], for which the “Selectivity BuChE/AChE” value in assay [1] is 2.9. Also, the IC50 in assay [1] is 69.2 ± 1 µM; in assay [2] (read-out: IC50 BuChE), 200 ± 13.2 µM; in the assay on HepG2 cells it was over 100 µM.
As to `O=C(NN=C1CCCCC1)c1ccc(C(F)(F)F)cc1` [3c], the “Selectivity BuChE/AChE” value in assay [1] was 1.2. The IC50 in assay [1] was 61.2 ± 1.3 µM; in assay [2] (read-out: IC50 BuChE) it was 74.7 ± 2.7 µM; in the assay with HepG2 cells it was over 100 µM.
For `CC12CCC(CC1=NNC(=O)c1ccc(C(F)(F)F)cc1)C2(C)C` (centres unmarked) [3d], the “Selectivity BuChE/AChE” value in assay [1] worked out at 1.0. Further, the half-maximal inhibitory concentration (IC50) in assay [1] is 59.3 ± 1.8 µM; in assay [2] (read-out: IC50 BuChE), 57 µM and 57.2 µM; in the assay with HepG2 cells, over 100 µM.
With `NNC(=O)c1ccc(C(F)(F)F)cc1` [compound 1, 4-(Trifluoromethyl)benzohydrazide], the IC50 in the assay on HepG2 cells is over 100 µM.
